Literature values as cited in patent US9072783B2, “Highly dispersible powders, compositions and methods for preparation” (Aridis Pharmaceuticals, priority 2009, dated 2015).

Conditions: of the amino acid itself (Table 3)

Row | SMILES | Hydropathy Index
1 | N[C@@H](CC(=O)O)C(=O)O [Aspartic Acid, aspartic acid] | −3.5
2 | N[C@@H](Cc1ccc(O)cc1)C(=O)O [Tyrosine, tyrosine] | −1.3
